Reference: patent US20230181514A1, “NEW TRIGLYCERIDE OBTAINED FROM A MACROCYBE TITANS EXTRACT, CLINICAL APPLICATIONS AND PRODUCTION METHOD” (BIO TECH STARE GLOBAL S.R.L., priority 2020, published 2023)
“Also recorded” adds a separate entry of the source.

Tests used:
[1] = tested on: A549 (lung adenocarcinoma); assay: Cytotoxicity test (Cell Titer, 5 days), tumor line; assay type: cell-based, human
Protocol: (§1) Extracts (aqueous, ethyl, acidic) were obtained from 9 macrofungi species collected by INBio in the Costa Rican rainforests. All of them were subjected to a cytotoxicity test with two human cell lines: A549 (lung adenocarcinoma) and NL20 (immortalized, non-tumor line, obtained from the pulmonary epithelium). Cells were plated in 96-well plates at densities of 2,000 (A549) or 10,000 (NL20) cells per well. Once the cells were stuck to the bottom, serial concentrations of each extract were added and incubated at 37° C. for 5 days under a humidified atmosphere (85% relative humidity) and containing 5% CO2. Eight repeats (wells) were studied for each concentration. At the end of the incubation process, 20 μl of Cell Titer (Promega) were added per well and left for 4 h to allow the formation of the colored formazan salts. Colorimetric quantification was performed with a plate reader (POLARstar Omega) using a wavelength of 490 nm, following already published protocols (Coderch C, Diaz de C M, Zapico J M, Pelaez R, Larrayoz I M, Ramos A, et al. In silico identification and in vivo characterization of small molecule therapeutic hypothermia mimetics. Bioorg Med Chem 2017; 25:6597-604). […]

[2] = tested on: NL20 (immortalized, non-tumor line, pulmonary epithelium); assay: Cytotoxicity test (Cell Titer, 5 days), non-tumor line; assay type: cell-based, human
Protocol: as §1

[3] = tested on: actin cytoskeleton of A549 cells; assay: Modulation of the actin cytoskeleton (Bodipy-falacidine staining, confocal), tumor cells; assay type: cell-based, human; details: 0.03 mg/ml, 24-hour treatment
Text: (§2) Many antitumor substances exert their effects by modulating the cytoskeleton of tumor cells, either acting on microtubules or on actin filaments (Zhang S, Menche D, Zahler S, Vollmer A M, Liebl J, Forster F. In vitro anti-cancer effects of the actin-binding natural compound rhizopodin. Pharmazie 2015; 70:610-5.). To check whether compound TG10 has a similar mechanism of action as other antitumor drugs, tumor cells (A549) and non-tumor cells (NL20) were subjected to a 24-hour treatment with 0.03 mg/ml TG10. At the end of this time, the cells were fixed with 10% formaldehyde for 10 min, permeabilized with 0.1% Triton X-100 for 10 min and exposed to 1: 200 Bodipy-falacidine and 1: 1000 DAPI (Molecular Probes) for 1 h. The images were obtained with a confocal laser microscope (TCS SP5, Leica).

[4] = tested on: actin cytoskeleton of NL20 cells; assay: Modulation of the actin cytoskeleton (Bodipy-falacidine staining, confocal), non-tumor cells; assay type: cell-based, human; details: 0.03 mg/ml, 24-hour treatment
Text: as §2

[5] = tested on: A549 xenograft tumors; assay: Human lung cancer xenografts in immunosuppressed mice; assay type: in vivo, mice (NOD scid gamma)
Protocol: In this case, 20 male mice of the NOD scid gamma strain (NSG, Stock No. 005557, The Jackson Laboratory) were used. All of them were injected subcutaneously with 10 million A549 cells and left for 2 weeks until the tumors became measurable. Two groups of 10 mice each were randomized and marked as control group (diamonds) and TG10-treated group (squares). From this point, intratumor injections with 100 μl of PBS (control group) or 0.1 mg/ml of TG10 in PBS (treated group) were applied 3 times per week. Before each injection, tumor volumes were measured with a caliper. The mice were euthanized when the tumors reached a size incompatible with animal welfare.

| Compound | Antitumor activity against A549 (toxicity test of synthesized TGs) [1] | Toxicity to normal cells (NL20) [2] | Effect on actin fibers of A549 cells [3] | Effect on actin fibers of NL20 cells [4] | Tumor growth versus control (in words) ([5]; intratumor 0.1 mg/ml in PBS, 3 times per week, FIG. 5) | Average tumor volume at the end of the experiment ([5]; intratumor 100 μl of 0.1 mg/ml in PBS, 3 times per week from day 15, end day 48, control 2900 mm^3, p<0.05) |
| --- | --- | --- | --- | --- | --- | --- |
| 2S-TG (C18:2, 9z, 12z; C16:0; C18:1, 9z) [TG9] | no effect on cells | no effect on cells | – | – | – | – |
| CCCCC/C=C\C/C=C\CCCCCCCC(=O)OC[C@@H](COC(=O)CCCCCCC/C=C\CCCCCCCC)OC(=O)CCCCCCCCCCCCCCC [TG10, 2R-TG (C18:2, 9z, 12z; C16:0; C18:1, 9z)] | exhibited antitumor activity; also recorded: TG10 (active) | not toxic to normal cells | completely lost the polymerized actin fibers | maintained the filamentous structure of actin | continued to grow, but at a slower rate | 1600 mm^3 |
